Measurements reported in PubChem BioAssay (NCI).
“And” between values parts separate entries of the source, which are not always exact repeats. Identical values can stand only once.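 96-well plates; 48 h exposure; 5 concentrations. Endpoints by linear interpolation between flanking doses. Not reached: highest tested concentration assigned. Abbreviation: GI50, concentration required for 50% inhibition of growth. TGI is the concentration that stops growth completely.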

Columns and labels:
Assay in all cases: NCI tumour cell line growth inhibition, 48 h
ACHN renal = test system: ACHN renal
SN12C renal = test system: SN12C renal
A549 NSCLC = test system: A549 NSCLC
NCI-H226 lung = test system: NCI-H226 lung
SK-MEL-5 melanoma = test system: SK-MEL-5 melanoma
UACC-62 melanoma = test system: UACC-62 melanoma
SF-539 CNS = test system: SF-539 CNS
A498 renal = test system: A498 renal
OVCAR-4 ovarian = test system: OVCAR-4 ovarian
KM12 colon = test system: KM12 colon
RXF-631 renal = test system: RXF-631 renal
COLO 205 colon = test system: COLO 205 colon
RPMI-8226 leukemia = test system: RPMI-8226 leukemia
HCT-116 colon = test system: HCT-116 colon
M14 melanoma = test system: M14 melanoma
M19-MEL melanoma = test system: M19-MEL melanoma
SF-268 CNS = test system: SF-268 CNS
MOLT-4 leukemia = test system: MOLT-4 leukemia
XF 498 CNS = test system: XF 498 CNS
RXF 393 renal = test system: RXF 393 renal
NCI-H23 lung = test system: NCI-H23 lung
SW-620 colon = test system: SW-620 colon
SNB-75 CNS = test system: SNB-75 CNS
HOP-92 NSCLC = test system: HOP-92 NSCLC
KM20L2 colon = test system: KM20L2 colon
SNB-78 CNS = test system: SNB-78 CNS
LOX IMVI melanoma = test system: LOX IMVI melanoma
EKVX NSCLC = test system: EKVX NSCLC
IGROV1 ovarian = test system: IGROV1 ovarian
K-562 leukemia = test system: K-562 leukemia
CAKI-1 renal = test system: CAKI-1 renal
SF-295 CNS = test system: SF-295 CNS
UACC-257 melanoma = test system: UACC-257 melanoma
HL-60(TB) leukemia = test system: HL-60(TB) leukemia
TK-10 renal = test system: TK-10 renal
CCRF-CEM leukemia = test system: CCRF-CEM leukemia
U251 CNS = test system: U251 CNS
SK-MEL-28 melanoma = test system: SK-MEL-28 melanoma
HCT-15 colon = test system: HCT-15 colon
786-0 renal = test system: 786-0 renal
HOP-18 NSCLC = test system: HOP-18 NSCLC
OVCAR-5 ovarian = test system: OVCAR-5 ovarian
DLD-1 colon = test system: DLD-1 colon
MALME-3M melanoma = test system: MALME-3M melanoma
OVCAR-3 ovarian = test system: OVCAR-3 ovarian
HCC-2998 colon = test system: HCC-2998 colon
HOP-62 NSCLC = test system: HOP-62 NSCLC
NCI-H460 lung = test system: NCI-H460 lung
SK-OV-3 ovarian = test system: SK-OV-3 ovarian
DMS 114 small cell lung = test system: DMS 114 small cell lung
HT29 colon = test system: HT29 colon
SK-MEL-2 melanoma = test system: SK-MEL-2 melanoma
LXFL 529 NSCLC = test system: LXFL 529 NSCLC
SNB-19 CNS = test system: SNB-19 CNS
NCI-H522 lung = test system: NCI-H522 lung
UO-31 renal = test system: UO-31 renal
DMS 273 small cell lung = test system: DMS 273 small cell lung
OVCAR-8 ovarian = test system: OVCAR-8 ovarian

In the case of `CCOc1ccc(/C=C\c2cc(OC)c(OC)c(OC)c2)cc1`, the TGI (ACHN renal) is reported as over 100 µM, the TGI (SN12C renal) is reported as 60.5 µM and the TGI (A549 NSCLC) is reported as over 100 µM. For the same compound, the TGI (NCI-H226 lung) was 0.0223 µM and 0.024 µM, the TGI (SK-MEL-5 melanoma) was 0.117 µM and the TGI (UACC-62 melanoma) was over 100 µM. For the same compound, the TGI (SF-539 CNS) was 0.000685 µM, the TGI (A498 renal) was 0.0248 µM and the GI50 (OVCAR-4 ovarian) was 0.403 µM. It also gave a TGI (OVCAR-4 ovarian) of over 100 µM, a GI50 (KM12 colon) of 0.0172 µM and a TGI (KM12 colon) of 0.185 µM. It also gave a TGI (RXF-631 renal) of over 100 µM, a TGI (COLO 205 colon) of 0.399 µM and a TGI (RPMI-8226 leukemia) of 5.03 µM. For the same compound, the TGI (HCT-116 colon) was 0.152 µM, the TGI (M14 melanoma) was over 100 µM and the TGI (M19-MEL melanoma) was over 100 µM. The TGI (SF-268 CNS) was over 100 µM, the TGI (MOLT-4 leukemia) was 17.8 µM and the TGI (XF 498 CNS) was 0.0917 µM. It also gave a TGI (RXF 393 renal) of 0.000904 µM, a TGI (NCI-H23 lung) of 0.111 µM and a TGI (SW-620 colon) of over 100 µM. The TGI (SNB-75 CNS) was 0.000226 µM, the TGI (HOP-92 NSCLC) was 0.0512 µM and the TGI (KM20L2 colon) was 0.00113 µM. It also gave a TGI (SNB-78 CNS) of over 100 µM, a TGI (LOX IMVI melanoma) of over 100 µM and a TGI (EKVX NSCLC) of over 100 µM. For the same compound, the GI50 (IGROV1 ovarian) was 0.0317 µM, the TGI (IGROV1 ovarian) was over 100 µM and the TGI (K-562 leukemia) was over 100 µM. For the same compound, the TGI (CAKI-1 renal) was 18.6 µM, the TGI (SF-295 CNS) was 0.000209 µM and the TGI (UACC-257 melanoma) was 98.6 µM. The TGI (HL-60(TB) leukemia) was 0.00354 µM and 0.0155 µM, the TGI (TK-10 renal) was over 100 µM and the TGI (CCRF-CEM leukemia) was 91.3 µM. For the same compound, the TGI (U251 CNS) was 0.0132 µM and 0.0341 µM, the TGI (SK-MEL-28 melanoma) was over 100 µM and the GI50 (HCT-15 colon) was 0.0322 µM. The TGI (HCT-15 colon) was 0.286 µM, the TGI (786-0 renal) was over 100 µM and the GI50 (HOP-18 NSCLC) was over 100 µM. For the same compound, the TGI (HOP-18 NSCLC) was over 100 µM, the TGI (OVCAR-5 ovarian) was 61.7 µM and the GI50 (DLD-1 colon) was 0.0292 µM. The TGI (DLD-1 colon) was over 100 µM.

`OC1CC1Sc1ccccc1` (centres undefined) gave a TGI (ACHN renal) of over 100 µM, a TGI (SN12C renal) of 61.7 µM and a TGI (A549 NSCLC) of over 100 µM. For the same compound, the TGI (SK-MEL-5 melanoma) was over 100 µM, the TGI (UACC-62 melanoma) was over 100 µM and the TGI (SF-539 CNS) was 46.4 µM. For the same compound, the TGI (A498 renal) was over 100 µM, the TGI (MALME-3M melanoma) was over 100 µM and the TGI (OVCAR-4 ovarian) was over 100 µM. For the same compound, the TGI (OVCAR-3 ovarian) was 78.7 µM, the TGI (KM12 colon) was over 100 µM and the TGI (RXF-631 renal) was over 100 µM. For the same compound, the TGI (COLO 205 colon) was over 100 µM, the TGI (RPMI-8226 leukemia) was 83.4 µM and the TGI (HCT-116 colon) was 62.9 µM. For the same compound, the TGI (M14 melanoma) was over 100 µM, the TGI (HCC-2998 colon) was over 100 µM and the TGI (M19-MEL melanoma) was over 100 µM. The TGI (SF-268 CNS) was 78.1 µM, the TGI (MOLT-4 leukemia) was 91.7 µM and the TGI (XF 498 CNS) was over 100 µM. It also gave a TGI (HOP-62 NSCLC) of over 100 µM, a TGI (RXF 393 renal) of over 100 µM and a TGI (NCI-H460 lung) of over 100 µM. The TGI (SK-OV-3 ovarian) was over 100 µM, the TGI (NCI-H23 lung) was over 100 µM and the TGI (DMS 114 small cell lung) was 74.4 µM. The TGI (HT29 colon) was over 100 µM, the TGI (SW-620 colon) was 78.4 µM and the TGI (SNB-75 CNS) was over 100 µM. For the same compound, the TGI (HOP-92 NSCLC) was over 100 µM, the TGI (SK-MEL-2 melanoma) was over 100 µM and the TGI (SNB-78 CNS) was over 100 µM. It also gave a TGI (LOX IMVI melanoma) of 71.1 µM, a TGI (EKVX NSCLC) of over 100 µM and a TGI (IGROV1 ovarian) of 60.1 µM. For the same compound, the TGI (K-562 leukemia) was over 100 µM, the TGI (CAKI-1 renal) was over 100 µM and the TGI (LXFL 529 NSCLC) was 89.2 µM. It also gave a TGI (SF-295 CNS) of 69.4 µM, a TGI (SNB-19 CNS) of over 100 µM and a TGI (UACC-257 melanoma) of over 100 µM. For the same compound, the TGI (HL-60(TB) leukemia) was 39.6 µM, the TGI (NCI-H522 lung) was 39.8 µM and the TGI (TK-10 renal) was over 100 µM. For the same compound, the TGI (CCRF-CEM leukemia) was over 100 µM, the TGI (UO-31 renal) was 33.6 µM and the TGI (U251 CNS) was over 100 µM. For the same compound, the TGI (SK-MEL-28 melanoma) was 57.3 µM, the TGI (HCT-15 colon) was over 100 µM and the TGI (786-0 renal) was 42.8 µM. The TGI (DMS 273 small cell lung) was over 100 µM, the TGI (OVCAR-8 ovarian) was 92.7 µM and the TGI (OVCAR-5 ovarian) was over 100 µM. It also gave a TGI (DLD-1 colon) of over 100 µM.
